Measured values reported in paper PMC3417354 (Analytical biochemistry, 2012).

Assays:
mammalian cells = details: overexpression in mammalian cells; ref [19]; [20]; cited from earlier work
PCNA trimer = test: Gel filtration chromatography of PCNA/peptide complexes; type: binding, human; details: Superose 12, peptide : PCNA trimer 1:1; UV 280 nm
[1] = test system: PCNA-dependent DNA synthesis; test: Inhibition of PCNA-dependent DNA synthesis in HeLa cell extract; type: biochemical, human; details: PCNA titrated 0.05-2.5 μM (0.1-2.5 μM with 20 μM p21 peptide)
human PCNA = human PCNA (Homo sapiens, UniProt P12004); test: Competition-based fluorescence polarization assay with BODIPY-p21 peptide; type: binding; details: competition FP, abstract statement
Chain of human PCNA (P12004 whole entry): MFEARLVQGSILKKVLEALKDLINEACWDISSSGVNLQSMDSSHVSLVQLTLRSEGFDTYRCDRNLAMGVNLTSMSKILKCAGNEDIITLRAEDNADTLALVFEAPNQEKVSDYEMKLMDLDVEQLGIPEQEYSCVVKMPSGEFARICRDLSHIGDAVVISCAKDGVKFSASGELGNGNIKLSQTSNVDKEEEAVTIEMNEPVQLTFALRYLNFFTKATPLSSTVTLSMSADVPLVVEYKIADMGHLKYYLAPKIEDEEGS

Substance	arrest of cell division (in words) (mammalian cells)	binding of single or multiple PCNA trimers (in words) (PCNA trimer)	rescue of DNA synthesis by added PCNA (in words) [1]	dissociation constant (in words) (human PCNA)
20 amino-acid peptide spanning the C-terminus of p21: amino acids 141-160 of the native p21	able to arrest cell division	–	–	–
KRRQTSMTDFYHSKRRLIFSGGSGGSGGSGGSGGSGGSKRRQTSMTDFYHSKRRLIFS [divalent p21 peptide]	–	rules out the binding of multiple PCNA trimers	reversed the inhibition	low nanomolar dissociation constant
KRRQTSMTDFYHSKRRLIFSGGSGGSGGSGGSGGSGGSKRRQTSMTDFYHSKRRLIFSGGSGGSGGSGGSGGSGGSKRRQTSMTDFYHSKRRLIFS [trivalent p21 peptide]	–	rules out the binding of multiple PCNA trimers	reversed the inhibition	low nanomolar dissociation constant
